Key:
[1] = tested on: photoreceptor precursor cells (PPCs); assay: Survival of AAGP-pretreated photoreceptor precursor cells after subretinal transplantation into rabbits with retinal degeneration; type: in vivo, Rabbit (Oryctolagus cuniculus); details: PPCs pre-treated in vitro 24 hours with 4 mg/mL; 6 months post subretinal transplantation; cyclosporine-A discontinued two weeks post transplantation; qualitative visual examination of flatmounts
Protocol: The objective of this study was to determine the effect of 24-hour pretreatment with anti-aging glycoprotein (AAGP™) at 4 mg/mL on the long-term (6 months) survival and functional activity of photoreceptor precursor cells (PPCs) following their subretinal transplantation into the eye of rabbits with retinal degeneration.
PPCs were generated in vitro from pluripotent human embryonic stem cells (hESCs) and incubated for 24 hours in media alone (control group) or media containing 4 mg/mL AAGP™ Following incubation, treated and untreated PPCs were labeled and injected into the subretinal space of the eye of immunosuppressed rabbits with induced retinal degeneration (4-5 rabbits/group). Animals were euthanized 6 month later, retinas were collected, and cell survival was determined in excised retinal flatmounts by imaging with confocal laser scanning system. The functional activity of transplanted cells was assessed by immunostaining for synaptic (Ribeye and Bassoon) and photoreceptor markers (Arrestin and Blue Opsin).
Retinal degeneration was induced on Day 1 of the study. […]

[2] = tested on: CD4+ T cells; assay: Immunohistochemistry to detect CD4+ T cells in conjunctival epithelium of dry eye disease-induced mice; type: in vivo, mouse; details: bilateral topical administration of 5%; for CD4+ T cells infiltration into the conjunctival epithelium: DS-induced mice, result in words
Protocol: Enucleated mouse eyes with intact conjunctiva were suspended in optimal cutting temperature (OCT) compound and flash frozen in liquid nitrogen. Immunohistochemistry was performed on six-micrometer frozen sections to detect and count the number of cells in conjunctival epithelium that stained positively for CD4 (clone H129.9, 10 μg/mL; BD Biosciences® cat #553647), a biotinylated secondary antibody (BD Pharmingen® cat #559286), and NovaRED® peroxidase (Vector Laboratories® cat #SK-4800). Secondary antibody alone and anti-rat isotype (clone A110-2; BD Biosciences® cat #553992) controls were also examined. Positively stained cells were counted in the GC-rich area of the conjunctiva using image analysis software (Nikon NIS Elements® software) using a 10×objective. T-cell detection and quantification was performed on Arms 1, 2, 4, and 5 only. CD4+ T cells infiltration into the conjunctival epithelium is a primary clinical indicator of dry eye disease (DED), which is used here as a proxy to study immune cell infiltration into diseased tissue suffering from […].

[3] = DS5 mice, conjunctival epithelium

Q: Which results are given for `C[C@H](NC(=O)[C@H](C)NC(=O)[C@@H](N)CCCCNC(=O)C(F)(F)C1(O)O[C@H](CO)[C@H](O)[C@H](O)[C@H]1O)C(=O)O.Cl` (stereo partly drawn) [AAGP™]?
A: cell survival of transplanted PPCs [1]: substantial increase; T-Cell Density, 25% Percentile [2, 3]: 0.3767; T-Cell Density, 75% Percentile [2, 3]: 0.7663; T-Cell Density, Maximum [2, 3]: 1.152; T-Cell Density, Mean [2, 3]: 0.5644; T-Cell Density, Median [2, 3]: 0.4907; T-Cell Density, Minimum [2, 3]: 0.2307; CD4+ T cells infiltration into the conjunctival epithelium [2]: suppresses T-cell response; CD4+ T cells infiltration into the conjunctival epithelium ([2]; listed as PKX-001): significantly reduced

Source: patent publication US20230142705A1, “USE OF ANTI-AGING GLYCOPEPTIDES FOR INHIBITION OF IMMUNE REJECTION OF A GRAFT” (PROTOKINETIX INC., priority 2020, published 2023)
